Patent publication US20120027807A1, “TISSUE ENGINEERED MYOCARDIUM AND METHODS OF PRODUCTION AND USES THEREOF” (THE GENERAL HOSPITAL CORPORATION, priority 2008, published 2012)

Tests used:
[1] = test system: gap junctions (e.g. Connexin 43); assay: Heptanol wash-in / wash-out on muscular thin film; type: cell-based, mouse
Description: FIGS. 10A-10D show the tissue engineered myocardium on a muscular thin film derived from cardiac progenitor cells. […] All the heptanol was not washed-out resulting in the reduced contractility after cell-cell electrical coupling was restored.

[2] = test system: R+G+ derived ventricular myocytes; type: cell-based, mouse

Row | SMILES | contractions after heptanol wash-out ([1]; partial wash-out) | coupling of cardiomyocytes by gap junctions ([1]; wash-in then wash-out of heptanol, MTF contractile force over time) | effect on the transmembrane action potential [2]
1 | CCCCCCCO [heptanol] | partial washout restores contractions | reversibly blocked | 
2 | NC1=N[C@H](O)[C@H]2[C@H]3O[C@]4(O)O[C@@H]([C@@H](O)[C@@]2(N1)[C@@H]4O)[C@]3(O)CO [TTX, tetrodotoxin] |  |  | ablated the action potential
